Assay results reported in PubChem BioAssay AID2060602 (Molecular Pharmacology Branch, DTP, NCI, 2025).

System: 648629-189-R-J1-PDC complex spheroids viability
Test: Anticancer human tumor 648629-189-R-J1-PDC patient-derived bladder carcinoma cell line growth inhibition [CLK]
Conditions: for IC50: curve of first compound; for viability, T/C: stronger effect = lower value
Source text: A high-throughput screen of multi-cell type tumor spheroids was designed to identify active combinations of […] and targeted small molecules. Complex spheroids include a stromal component modeled by human endothelial cells (HUVEC) and fibroblasts modeled by human mesenchymal stem cells (MSCs). The concentration ranges selected for each drug and investigational agent were based upon clinically achievable concentrations if the clinical Cmax of the agent was known.
Compounds. The drugs and investigational agents: cirtuvivint (SM08502; NSC835563), CC-671 (NSC850746), vemurafenib (NSC761431), tapotoclax (NSC804041), sotorasib (NSC818433), adagrasib (NSC831453), MRTX-1133 (NSC836407), BAY2416964 (NSC825713), copanlisib (NSC816437), inavolisib (NSC800729), abemaciclib (NSC768073), osimertinib (NSC779217), entinostat (NSC756642), eltanexor (KPT-8602, NSC794443), venetoclax (NSC766270), ceralasertib (NSC777638), bortezomib (NSC756655), olaparib (NSC753686), talazoparib (NSC767125), alisertib (NSC759677), peposertib (NSC802822), gemcitabine (NSC613327), 5-fluorouracil (NSC19893), SN-38 (NSC673596), oxaliplatin (NSC266046), paclitaxel (NSC125973), and doxorubicin (NSC123127), were obtained from the National Cancer Institute (NCI) Developmental Therapeutics Program Chemical Repository. The FDA-approved anticancer drug set is available from the Developmental Therapeutics Program at https://dtp.cancer.gov/organization/dscb/obtaining/available plates.htm. […] The stock solutions were prepared in dimethyl sulfoxide (DMSO, Sigma-Aldrich, St. Louis, MO, cat. D2650), except for the platinum complexes which were prepared in saline (Quality Biological, Gaithersburg, MD, cat. 114-055-101), at 800-fold the tested concentration and stored at -70 degrees C prior to their use. All drugs and investigational agents were tested over a range starting from a high concentration at or near the clinical Cmax and decreasing in half-log increments. If the clinical Cmax for an agent had not been determined, the highest concentration tested was 10 microM.
Cell Culture. All cells were maintained in an incubator at 37 degrees C and 5% CO2 with 95% humidity. The PDC lines were cultured according to standard operating procedures established by the NCI PDMR. Briefly, all PDCs were thawed and cultured in Matrigel-coated flasks prepared with a working solution of 1X Ham's F-12 nutrient mix, without supplementation (Invitrogen, Waltham, MA, cat. 11765054), 100 U/mL penicillin-streptomycin (Invitrogen, cat. 15140122), and 2.5% Matrigel (Corning Inc., Corning, NY, cat. 354248) for the first three passages. The 947758-054-R-J2-PDC line was cultured in 6B/Colon 1A media, which includes advanced DMEM/F-12 (Thermo Fisher Scientific, cat. 12634028), 10 mM HEPES (Thermo Fisher Scientific, cat. 15630080), 1X GlutaMAX supplement (Thermo Fisher Scientific, cat. 35050061), 0.1 mg/mL primocin (InvivoGen, cat. ant-pm-2), 10% defined fetal bovine serum, heat inactivated (HyClone Laboratories Inc., cat. SH30070.03HI), 1.25 mM N-Acetyl-L-cysteine (Sigma-Aldrich, cat. A9165), 10 mM nicotinamide (Sigma-Aldrich, cat. N0636), 1X B-27 supplement (Thermo Fisher Scientific, cat. 17504044), 1X N-2 supplement (Thermo Fisher Scientific, cat. 17502048), and 10 microM Y-27632 dihydrochloride (Tocris Bioscience, cat. 1254). The 876862-298-R-J1-PDC was cultured in 6E media, which includes all 6B/Colon 1A media components plus 50% L-WRN conditioned media (ATCC, cat. CRL-3276), 50 ng/mL recombinant human EGF recombinant protein (hEGF; Thermo Fisher Scientific, cat. PHG0311), 10 ng/mL recombinant human fibroblast growth factor 10 (hGFG-10; PeproTech, cat. 100-26), 1 ng/mL recombinant human fibroblast growth factor 2 (hFGF-2; PeproTech, cat. 100-18B), and 1 µM prostaglandin E2 (PGE2; Tocris, cat. 2296). The 227483-062-R1-J1-PDC line was cultured in Panc media, containing all 6E components except hFGF-2, with the addition of 500 nM SB-431542 (Selleckchem, cat. S1067) and 10 nM gastrin (Tocris, cat. 3006). […]

[1] = second compound 0.0316 µM, first compound 0.0316 µM
[2] = second compound 0.0316 µM, first compound 0.1 µM
[3] = second compound 0.0316 µM, first compound 0.316 µM
[4] = second compound 0.0316 µM, first compound 1 µM
[5] = second compound 0.1 µM, first compound 0.0316 µM
[6] = second compound 0.1 µM, first compound 0.1 µM
[7] = second compound 0.1 µM, first compound 0.316 µM
[8] = second compound 0.1 µM, first compound 1 µM
[9] = second compound 0.316 µM, first compound 0.0316 µM
[10] = second compound 0.316 µM, first compound 0.1 µM
[11] = second compound 0.316 µM, first compound 0.316 µM
[12] = second compound 0.316 µM, first compound 1 µM
[13] = second compound 1 µM, first compound 0.0316 µM
[14] = second compound 1 µM, first compound 0.1 µM
[15] = second compound 1 µM, first compound 0.316 µM
[16] = second compound 1 µM, first compound 1 µM
[17] = second compound 3.16 µM, first compound 0.0316 µM
[18] = second compound 3.16 µM, first compound 0.1 µM
[19] = second compound 3.16 µM, first compound 0.316 µM
[20] = second compound 3.16 µM, first compound 1 µM
[21] = second compound 10 µM, first compound 0.0316 µM
[22] = second compound 10 µM, first compound 0.1 µM
[23] = second compound 10 µM, first compound 0.316 µM
[24] = second compound 10 µM, first compound 1 µM
[25] = second compound 0.0316 µM, first compound 0.00316 µM
[26] = second compound 0.0316 µM, first compound 0.01 µM
[27] = second compound 0.1 µM, first compound 0.00316 µM
[28] = second compound 0.1 µM, first compound 0.01 µM
[29] = second compound 0.316 µM, first compound 0.00316 µM
[30] = second compound 0.316 µM, first compound 0.01 µM
[31] = second compound 1 µM, first compound 0.00316 µM
[32] = second compound 1 µM, first compound 0.01 µM
[33] = second compound 3.16 µM, first compound 0.00316 µM
[34] = second compound 3.16 µM, first compound 0.01 µM
[35] = second compound 10 µM, first compound 0.00316 µM
[36] = second compound 10 µM, first compound 0.01 µM
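Wherever viability, T/C is given: drug exposure lasted seven days before viability readout; 100% = DMSO vehicle control wells.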

For CC(Nc1ccc2c(c1)OCCn1cc(N3C(=O)OCC3C(F)F)nc1-2)C(N)=O (stereo unspecified) + CN1CCN(c2cc(C(=O)Nc3cc4cc(-c5cnn(C)c5)ccc4cn3)ccn2)CC1, the IC50 (second compound 0.0316 µM) was 8560 nM, the IC50 (second compound 0.1 µM) was 8740 nM and the IC50 (second compound 0.316 µM) was < 31.6 nM. The IC50 (second compound 1 µM) was < 31.6 nM, the IC50 (second compound 3.16 µM) was < 31.6 nM and the IC50 (second compound 10 µM) was < 31.6 nM. The viability, T/C [1] was 114%, the viability, T/C [2] was 111% and the viability, T/C [3] was 97.6%. It also gave a viability, T/C [4] of 84.2%, a viability, T/C (second compound 0.0316 µM, first compound 3.16 µM) of 77.2% and a viability, T/C (second compound 0.0316 µM, first compound 10 µM) of 44.8%. For the same compound, the viability, T/C [5] was 105%, the viability, T/C [6] was 100% and the viability, T/C [7] was 90.2%. It also gave a viability, T/C [8] of 82.8%, a viability, T/C (second compound 0.1 µM, first compound 3.16 µM) of 68.8% and a viability, T/C (second compound 0.1 µM, first compound 10 µM) of 46.8%. For the same compound, the viability, T/C [9] was 44.5%, the viability, T/C [10] was 44.2% and the viability, T/C [11] was 42.5%. The viability, T/C [12] was 38.4%, the viability, T/C (second compound 0.316 µM, first compound 3.16 µM) was 30.9% and the viability, T/C (second compound 0.316 µM, first compound 10 µM) was 28.1%. For the same compound, the viability, T/C [13] was 0.75%, the viability, T/C [14] was 0.85% and the viability, T/C [15] was 0.93%. It also gave a viability, T/C [16] of 1.18%, a viability, T/C (second compound 1 µM, first compound 3.16 µM) of 0.5% and a viability, T/C (second compound 1 µM, first compound 10 µM) of 0.59%. The viability, T/C [17] was 0.08%, the viability, T/C [18] was 0.14% and the viability, T/C [19] was 0.16%. The viability, T/C [20] was 0.13%, the viability, T/C (second compound 3.16 µM, first compound 3.16 µM) was 1.1% and the viability, T/C (second compound 3.16 µM, first compound 10 µM) was 0.14%. For the same compound, the viability, T/C [21] was 0.1%, the viability, T/C [22] was 0.13% and the viability, T/C [23] was 0.17%. The viability, T/C [24] was 0.22%, the viability, T/C (second compound 10 µM, first compound 3.16 µM) was 0.22% and the viability, T/C (second compound 10 µM, first compound 10 µM) was 0.2%.
CCN1CCN(Cc2ccc(Nc3ncc(F)c(-c4cc(F)c5nc(C)n(C(C)C)c5c4)n3)nc2)CC1 + CN1CCN(c2cc(C(=O)Nc3cc4cc(-c5cnn(C)c5)ccc4cn3)ccn2)CC1 was tested, and the IC50 (second compound 0.0316 µM) was > 1000 nM, the IC50 (second compound 0.1 µM) was > 1000 nM and the IC50 (second compound 0.316 µM) was < 3.16 nM. For the same compound, the IC50 (second compound 1 µM) was < 3.16 nM, the IC50 (second compound 3.16 µM) was < 3.16 nM and the IC50 (second compound 10 µM) was < 3.16 nM. The viability, T/C [25] was 108%, the viability, T/C [26] was 101% and the viability, T/C [1] was 101%. It also gave a viability, T/C [2] of 127%, a viability, T/C [3] of 122% and a viability, T/C [4] of 123%. For the same compound, the viability, T/C [27] was 104%, the viability, T/C [28] was 104% and the viability, T/C [5] was 102%. It also gave a viability, T/C [6] of 101%, a viability, T/C [7] of 108% and a viability, T/C [8] of 101%. It also gave a viability, T/C [29] of 37%, a viability, T/C [30] of 48.5% and a viability, T/C [9] of 41.7%. The viability, T/C [10] was 50.6%, the viability, T/C [11] was 47.3% and the viability, T/C [12] was 40.4%. The viability, T/C [31] was 0.42%, the viability, T/C [32] was 0.24% and the viability, T/C [13] was 0.61%. The viability, T/C [14] was 0.35%, the viability, T/C [15] was 0.54% and the viability, T/C [16] was 0.32%. For the same compound, the viability, T/C [33] was 0.14%, the viability, T/C [34] was 0.26% and the viability, T/C [17] was 0.49%. The viability, T/C [18] was 0.15%, the viability, T/C [19] was 0.16% and the viability, T/C [20] was 0.16%. The viability, T/C [35] was 0.21%, the viability, T/C [36] was 0.21% and the viability, T/C [21] was 0.17%. The viability, T/C [22] was 0.16%, the viability, T/C [23] was 1.22% and the viability, T/C [24] was 1.51%.
COc1c(OCCCN2CCOCC2)ccc2c3n(c(=NC(=O)c4cnc(N)nc4)nc12)CCN3 + CN1CCN(c2cc(C(=O)Nc3cc4cc(-c5cnn(C)c5)ccc4cn3)ccn2)CC1 was tested, and the IC50 (second compound 0.0316 µM) was 91.3 nM, the IC50 (second compound 0.1 µM) was 73.3 nM and the IC50 (second compound 0.316 µM) was < 3.16 nM. The IC50 (second compound 1 µM) was < 3.16 nM, the IC50 (second compound 3.16 µM) was < 3.16 nM and the IC50 (second compound 10 µM) was < 3.16 nM. The viability, T/C [25] was 114%, the viability, T/C [26] was 102% and the viability, T/C [1] was 88.8%. The viability, T/C [2] was 46.6%, the viability, T/C [3] was 18.3% and the viability, T/C [4] was 12.1%. The viability, T/C [27] was 118%, the viability, T/C [28] was 101% and the viability, T/C [5] was 72.4%. The viability, T/C [6] was 43%, the viability, T/C [7] was 18.3% and the viability, T/C [8] was 10.7%. The viability, T/C [29] was 45.6%, the viability, T/C [30] was 43.8% and the viability, T/C [9] was 37.4%. The viability, T/C [10] was 22.5%, the viability, T/C [11] was 11% and the viability, T/C [12] was 5.26%. The viability, T/C [31] was 1.95%, the viability, T/C [32] was 0.55% and the viability, T/C [13] was 0.91%. It also gave a viability, T/C [14] of 0.76%, a viability, T/C [15] of 0.14% and a viability, T/C [16] of 0.11%. It also gave a viability, T/C [33] of 0.14%, a viability, T/C [34] of 0.49% and a viability, T/C [17] of 0.15%. It also gave a viability, T/C [18] of 0.11%, a viability, T/C [19] of 0.11% and a viability, T/C [20] of 0.58%. For the same compound, the viability, T/C [35] was 0.07%, the viability, T/C [36] was 0.14% and the viability, T/C [21] was 0.42%. It also gave a viability, T/C [22] of 0.17%, a viability, T/C [23] of 1.19% and a viability, T/C [24] of 1.16%.
